Legend:
Type in all cases: cell-based
WEE1 = target: T1, WEE1 (Homo sapiens, UniProt P30291+Q96SW2); assay: WEE1-ePL degradation assay (293T-LentiX, InCELL Hunter luminescence, 4 hr); settings: for 293T-LentiX WEE1-ePL Degradation 4 hr YMin (%): lower limit of fit, % of DMSO control signal remaining; for DC50: LentiX-HEK293T cells expressing WEE1-ePL, 4 hr incubation, read-out: 293T-LentiX WEE1-ePL Degradation 4 hr EC50
T1 construct: C-terminal ePL-tagged (DiscoverX, Fremont, CA) full-length WEE1 expression construct; expressed in transfected cells; host or cells: LentiX-HEK293T (Invitrogen), lentivirally transduced; the cells also over-express GSPT1-GN
T1 sequence (P30291 whole entry): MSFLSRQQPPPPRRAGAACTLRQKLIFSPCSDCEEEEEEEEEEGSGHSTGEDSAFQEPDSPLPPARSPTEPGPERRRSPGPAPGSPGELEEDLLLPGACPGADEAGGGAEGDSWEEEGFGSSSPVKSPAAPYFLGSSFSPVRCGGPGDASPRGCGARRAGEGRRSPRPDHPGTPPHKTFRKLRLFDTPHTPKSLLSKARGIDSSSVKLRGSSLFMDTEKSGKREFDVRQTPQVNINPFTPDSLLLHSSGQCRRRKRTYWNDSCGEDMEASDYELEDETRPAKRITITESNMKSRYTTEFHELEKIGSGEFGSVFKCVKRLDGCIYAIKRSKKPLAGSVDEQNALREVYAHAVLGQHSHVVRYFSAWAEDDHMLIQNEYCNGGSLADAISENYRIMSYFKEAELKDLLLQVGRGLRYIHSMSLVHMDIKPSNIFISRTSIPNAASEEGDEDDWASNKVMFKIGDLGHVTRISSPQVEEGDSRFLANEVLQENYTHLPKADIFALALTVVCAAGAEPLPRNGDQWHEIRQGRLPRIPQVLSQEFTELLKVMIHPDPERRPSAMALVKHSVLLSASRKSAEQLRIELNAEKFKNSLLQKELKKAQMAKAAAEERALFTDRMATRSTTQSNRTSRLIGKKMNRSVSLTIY
T1 sequence (Q96SW2 whole entry): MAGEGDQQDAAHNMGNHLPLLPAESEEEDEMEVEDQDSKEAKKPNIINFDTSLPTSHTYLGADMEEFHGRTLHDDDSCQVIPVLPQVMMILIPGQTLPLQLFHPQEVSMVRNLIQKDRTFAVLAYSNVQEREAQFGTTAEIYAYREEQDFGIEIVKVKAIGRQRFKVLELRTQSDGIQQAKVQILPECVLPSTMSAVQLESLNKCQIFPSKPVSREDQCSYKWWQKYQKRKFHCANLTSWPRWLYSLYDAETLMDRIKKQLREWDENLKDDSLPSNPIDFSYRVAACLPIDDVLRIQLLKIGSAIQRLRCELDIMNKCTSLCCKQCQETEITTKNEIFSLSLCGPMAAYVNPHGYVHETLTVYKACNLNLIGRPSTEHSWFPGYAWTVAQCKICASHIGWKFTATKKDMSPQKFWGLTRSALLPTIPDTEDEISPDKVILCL
T1 sequence (Q16531 whole entry partner): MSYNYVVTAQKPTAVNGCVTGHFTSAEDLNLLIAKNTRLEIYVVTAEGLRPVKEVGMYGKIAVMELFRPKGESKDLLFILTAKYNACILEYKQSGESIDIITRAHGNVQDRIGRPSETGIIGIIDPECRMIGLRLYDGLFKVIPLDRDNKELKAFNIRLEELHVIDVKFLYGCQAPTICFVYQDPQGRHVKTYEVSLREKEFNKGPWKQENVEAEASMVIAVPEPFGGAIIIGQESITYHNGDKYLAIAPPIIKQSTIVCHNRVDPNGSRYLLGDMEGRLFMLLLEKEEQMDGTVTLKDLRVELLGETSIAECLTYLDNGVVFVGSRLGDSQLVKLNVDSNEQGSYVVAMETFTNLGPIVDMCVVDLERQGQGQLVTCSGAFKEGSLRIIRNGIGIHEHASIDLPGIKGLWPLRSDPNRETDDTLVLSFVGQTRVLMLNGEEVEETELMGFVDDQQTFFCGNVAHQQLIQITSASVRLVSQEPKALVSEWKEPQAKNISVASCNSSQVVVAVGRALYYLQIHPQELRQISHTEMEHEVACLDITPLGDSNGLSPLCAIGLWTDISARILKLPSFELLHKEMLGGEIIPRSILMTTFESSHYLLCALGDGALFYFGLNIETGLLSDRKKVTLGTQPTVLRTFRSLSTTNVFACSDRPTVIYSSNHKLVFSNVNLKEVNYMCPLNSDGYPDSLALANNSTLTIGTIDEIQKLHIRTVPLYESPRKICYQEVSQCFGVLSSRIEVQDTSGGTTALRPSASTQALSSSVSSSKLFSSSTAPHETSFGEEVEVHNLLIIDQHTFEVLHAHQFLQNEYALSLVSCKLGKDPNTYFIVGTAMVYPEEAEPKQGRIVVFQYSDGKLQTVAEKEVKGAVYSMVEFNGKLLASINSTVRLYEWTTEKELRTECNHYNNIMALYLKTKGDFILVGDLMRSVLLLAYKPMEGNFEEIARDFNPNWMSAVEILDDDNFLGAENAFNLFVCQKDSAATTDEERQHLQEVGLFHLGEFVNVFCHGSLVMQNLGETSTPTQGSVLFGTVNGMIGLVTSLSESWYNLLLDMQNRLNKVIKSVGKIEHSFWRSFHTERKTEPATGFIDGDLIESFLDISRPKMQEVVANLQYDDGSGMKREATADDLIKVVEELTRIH
Outline: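 EC50 comes from a four-parameter logistic fit of ePL luminescence (InCELL Hunter), with DMSO control defining Ymax. Compounds ran as 10-point 3-fold dilutions from 1 or 10 µM for 4 h at 37 °C. Cells were HEK293T-LentiX with ePL-tagged full-length WEE1 and over-expressed Cereblon-resistant GSPT1-GN.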

MKN45 cells = assay: MKN45 cell proliferation assay (Cell-Titer-Glo, 120 hr); settings: for EC50: Homo sapiens, MKN-45, 120 h, read-out: MKN45 Cell Prolif. 120 hr EC50; for MKN45 Cell Prolif. 120 hr YMin (%): minimal percent of DMSO control observed
Outline: (§1)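 Growth inhibition was read as CellTiter-Glo luminescence after 120 h at 37 °C in RPMI/10% FBS, with 400 MKN45 or 800 MDA-MB-231 cells seeded per well. Compounds were tested in 10-point half-log series starting at 1 or 10 uM (0.1% DMSO), in triplicate for MKN45 and duplicate for MDA-MB-231. EC50 values are four-parameter fits to %DMSO control, and Ymin-obs is the minimal observed %DMSO.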

MDA-MB-231 cells = assay: MDA-MB-231 cell proliferation assay (Cell-Titer-Glo, 120 hr); settings: for EC50: Homo sapiens, MDA-MB-231, 120 h, read-out: MDA-MB 231 Cell Prolif. 120 hr EC50; for MDA-MB 231 Cell Prolif. 120 hr YMin (%): minimal percent of DMSO control observed
Outline: as §1

Compound | 293T-LentiX WEE1-ePL Degradation 4 hr YMin (%) (WEE1) | EC50 (MKN45 cells) [µM] | MKN45 Cell Prolif. 120 hr YMin (%) (MKN45 cells) | EC50 (MDA-MB-231 cells) [µM] | MDA-MB 231 Cell Prolif. 120 hr YMin (%) (MDA-MB-231 cells) | DC50 (WEE1) [µM]
COC[C@@H]1CN(Cc2ccc3nc(N4CCN(C5COC5)CC4)ccc3c2)C[C@H]1Oc1ccc2c(c1)CN([C@H]1CCC(=O)NC1=O)C2=O [Example 104, (3S)-3-(5-{[(3S,4S)-4-(methoxymethyl)-1-({2-[4-(oxetan-3-yl)piperazin-1-yl]quinolin-6-yl}methyl)pyrrolidin-3-yl]oxy}-1-oxo-2,3-dihydro-1H-isoindol-2-yl)piperidine-2,6-dione] | 21.3 | 0.001 | 8.2 | 0.018 | 42.5 | –
COC[C@@H]1CN(Cc2ccc3ccc(N4CCOCC4)nc3c2F)C[C@H]1Oc1ccc2c(c1)CN([C@H]1CCC(=O)NC1=O)C2=O [Example 105, (3S)-3-(5-{[(3S,4S)-1-{[8-fluoro-2-(morpholin-4-yl)quinolin-7-yl]methyl}-4-(methoxymethyl)pyrrolidin-3-yl]oxy}-1-oxo-2,3-dihydro-1H-isoindol-2-yl)piperidine-2,6-dione] | 40.7 | 0.087 | 83.4 | 0.234 | 91.5 | 0.001
COC[C@@H]1CN(Cc2cc(F)c3nc(C(=O)N4CCOCC4)ccc3c2)C[C@H]1Oc1ccc2c(c1)CN([C@H]1CCC(=O)NC1=O)C2=O [Example 106, (3S)-3-(5-{[(3S,4S)-1-{[8-fluoro-2-(morpholine-4-carbonyl)quinolin-6-yl]methyl}-4-(methoxymethyl)pyrrolidin-3-yl]oxy}-1-oxo-2,3-dihydro-1H-isoindol-2-yl)piperidine-2,6-dione] | 29.8 | 0.018 | 11.5 | 0.018 | 50.8 | 0.004
COC[C@@H]1CN(Cc2cc(F)c3nc(CC(C)(C)O)ncc3c2)C[C@H]1Oc1ccc2c(c1)CN([C@H]1CCC(=O)NC1=O)C2=O [Example 107, (3S)-3-(5-{[(3S,4S)-1-{[8-fluoro-2-(2-hydroxy-2-methylpropyl)quinazolin-6-yl]methyl}-4-(methoxymethyl)pyrrolidin-3-yl]oxy}-1-oxo-2,3-dihydro-1H-isoindol-2-yl)piperidine-2,6-dione] | 19.5 | 0.013 | 10.4 | 0.134 | 51.6 | 0.008
COC[C@@H]1CN(Cc2ccc3ccc(N4CCOCC4)nc3c2)C[C@H]1Oc1ccc2c(c1)CN([C@H]1CCC(=O)NC1=O)C2=O [Example 108, (3S)-3-(5-{[(3S,4S)-4-(methoxymethyl)-1-{[2-(morpholin-4-yl)quinolin-7-yl]methyl}pyrrolidin-3-yl]oxy}-1-oxo-2,3-dihydro-1H-isoindol-2-yl)piperidine-2,6-dione] | 61.2 | 0.34 | 89.6 | 3.1 | 82.8 | 0.008
COC[C@@H]1CN(Cc2cc(F)c3ncc(C4CCOCC4)cc3c2)C[C@H]1Oc1ccc2c(c1)CN([C@H]1CCC(=O)NC1=O)C2=O [Example 109, (3S)-3-(5-{[(3S,4S)-1-{[8-fluoro-3-(oxan-4-yl)quinolin-6-yl]methyl}-4-(methoxymethyl)pyrrolidin-3-yl]oxy}-1-oxo-2,3-dihydro-1H-isoindol-2-yl)piperidine-2,6-dione] | 27.5 | 0.001 | 8.7 | 0.016 | 37.3 | –
COC[C@@H]1CN(Cc2cc(F)c3nc(N4CCC(C(C)(C)O)CC4)ccc3c2)C[C@H]1Oc1ccc2c(c1)CN([C@H]1CCC(=O)NC1=O)C2=O [Example 110, (3S)-3-(5-{[(3S,4S)-1-({8-fluoro-2-[4-(2-hydroxypropan-2-yl)piperidin-1-yl]quinolin-6-yl}methyl)-4-(methoxymethyl)pyrrolidin-3-yl]oxy}-1-oxo-2,3-dihydro-1H-isoindol-2-yl)piperidine-2,6-dione] | 27.3 | – | 6.8 | 0.012 | 17.4 | –
COC[C@@H]1CN(Cc2ccc3nc(N4CCN(C5CN(C)C5)CC4)ccc3c2)C[C@H]1Oc1ccc2c(c1)CN([C@H]1CCC(=O)NC1=O)C2=O [Example 113, (3S)-3-(5-{[(3S,4S)-4-(methoxymethyl)-1-({2-[4-(1-methylazetidin-3-yl)piperazin-1-yl]quinolin-6-yl}methyl)pyrrolidin-3-yl]oxy}-1-oxo-2,3-dihydro-1H-isoindol-2-yl)piperidine-2,6-dione] | 29.5 | 0.004 | 9.0 | 0.098 | 55.3 | 0.009
COC[C@@H]1CN(Cc2ccc3nc(C4CCN(C5COC5)CC4)ccc3c2)C[C@H]1Oc1ccc2c(c1)CN([C@H]1CCC(=O)NC1=O)C2=O [Example 114, (3S)-3-(5-{[(3S,4S)-4-(methoxymethyl)-1-({2-[1-(oxetan-3-yl)piperidin-4-yl]quinolin-6-yl}methyl)pyrrolidin-3-yl]oxy}-1-oxo-2,3-dihydro-1H-isoindol-2-yl)piperidine-2,6-dione] | 29.7 | 0.001 | 8.6 | 0.014 | 47.4 | –
COC[C@@H]1CN(Cc2cc3ccc(C(=O)N(C)C)cc3cn2)C[C@H]1Oc1ccc2c(c1)CN([C@H]1CCC(=O)NC1=O)C2=O [Example 115, 3-{[(3S,4S)-3-({2-[(3S)-2,6-dioxopiperidin-3-yl]-1-oxo-2,3-dihydro-1H-isoindol-5-yl}oxy)-4-(methoxymethyl)pyrrolidin-1-yl]methyl}-N,N-dimethyliso-quinoline-7-carboxamide] | 21.5 | 0.009 | 9.4 | 0.213 | 41.5 | 0.006
COC[C@@H]1CN(Cc2cc(F)c3nc(C(=O)N(C)C4CCOCC4)ccc3c2)C[C@H]1Oc1ccc2c(c1)CN([C@H]1CCC(=O)NC1=O)C2=O [Example 117, 6-{[(3S,4S)-3-({2-[(3S)-2,6-dioxopiperidin-3-yl]-1-oxo-2,3-dihydro-1H-isoindol-5-yl}oxy)-4-(methoxymethyl)pyrrolidin-1-yl]methyl}-8-fluoro-N-methyl-N-(oxan-4-yl)quinoline-2-carboxamide] | 27.5 | 0.004 | 9.1 | 0.031 | 40.1 | 0.002
COC[C@@H]1CN(Cc2cc(F)c3nc(C45CCC(C(C)(C)O)(CC4)CC5)ccc3c2)C[C@H]1Oc1ccc2c(c1)CN([C@H]1CCC(=O)NC1=O)C2=O [Example 119, (S)-3-(5-(((3S,4S)-1-((8-fluoro-2-(4-(2-hydroxypropan-2-yl)bicyclo[2.2.2]octan-1-yl)quinolin-6-yl)methyl)-4-(methoxymethyl)pyrrolidin-3-yl)oxy)-1-oxoisoindolin-2-yl)piperidine-2,6-dione] | 23.6 | – | 6.8 | 0.067 | 1.7 | –
COC[C@@H]1CN(Cc2cc(F)c3nc(C4CN(CC(C)(C)O)C4)ccc3c2)C[C@H]1Oc1ccc2c(c1)CN([C@H]1CCC(=O)NC1=O)C2=O [Example 120, (3S)-3-(5-{[(3S,4S)-1-({8-fluoro-2-[1-(2-hydroxy-2-methylpropyl)azetidin-3-yl]quinolin-6-yl}methyl)-4-(methoxymethyl)pyrrolidin-3-yl]oxy}-1-oxo-2,3-dihydro-1H-isoindol-2-yl)piperidine-2,6-dione] | 17.2 | 0.002 | 7.8 | 0.063 | 30.0 | 0.004
COC[C@@H]1CN(Cc2cc(F)c3nc(C45C6C7C4C4C5C6C74C(C)(C)O)ccc3c2)C[C@H]1Oc1ccc2c(c1)CN([C@H]1CCC(=O)NC1=O)C2=O (stereo partly drawn) [Example 121, (S)-3-(5-(((3S,4S)-1-((8-fluoro-2-(4-(2-hydroxypropan-2-yl)cuban-1-yl)quinolin-6-yl)methyl)-4-(methoxymethyl)pyrrolidin-3-yl)oxy)-1-oxoisoindolin-2-yl)piperidine-2,6-dione] | 18.7 | – | 7.5 | 0.026 | 13.2 | –

Source: US20250197374A1, “WEE1 DEGRADING COMPOUNDS AND USES THEREOF” (BRISTOL-MYERS SQUIBB COMPANY, priority 2023, published 2025)
